# Data reported in PubChem BioAssay AID248 (DTP/NCI, 2004).
# Where “and” joins values, the source holds several entries; their conditions need not be identical. Identical values can stand only once. Inconclusive results and toxic doses are left out.
# System: L1210 leukemia ip in BDF1 mice, survival T/C
# Assay: NCI In Vivo Anticancer Drug Screen. Data for tumor model L1210 Leukemia (intraperitoneal) in B6D2F1 (BDF1) mice
# Settings: endpoint: mean survival time, higher = longer survival
# Procedure, shortened: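 Mice bearing the transplanted tumor received compound or vehicle. Survival of the treated group was divided by that of the vehicle-treated control group to give the ratio.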
# [1] = dose: 100.0 mg/kg/injection, schedule: Q01DX009 (ip), vehicle: saline with Tween-80
# [2] = dose: 25.0 mg/kg/injection, schedule: Q01DX009 (ip), vehicle: saline
# [3] = dose: 100.0 mg/kg/injection, schedule: Q01DX001 (ip), vehicle: other
# [4] = dose: 100.0 mg/kg/injection, schedule: Q04DX003 (ip), vehicle: Klucel (hydroxypropylcellulose) (HPC)
# [5] = dose: 200.0 mg/kg/injection, schedule: Q01DX001 (ip), vehicle: other
# [6] = dose: 200.0 mg/kg/injection, schedule: Q04DX003 (ip), vehicle: Klucel (hydroxypropylcellulose) (HPC)
# [7] = dose: 400.0 mg/kg/injection, schedule: Q04DX003 (ip), vehicle: Klucel (hydroxypropylcellulose) (HPC)
# [8] = dose: 100.0 mg/kg/injection, schedule: Q04DX002 (ip), vehicle: Klucel (hydroxypropylcellulose) (HPC)
# [9] = dose: 200.0 mg/kg/injection, schedule: Q04DX002 (ip), vehicle: Klucel (hydroxypropylcellulose) (HPC)
# [10] = dose: 100.0 mg/kg/injection, schedule: Q01DX009 (ip), vehicle: Klucel (hydroxypropylcellulose) (HPC)
# [11] = dose: 200.0 mg/kg/injection, schedule: Q01DX009 (ip), vehicle: Klucel (hydroxypropylcellulose) (HPC)
# [12] = dose: 100.0 mg/kg/injection, schedule: Q01DX001 (ip), vehicle: Klucel (hydroxypropylcellulose) (HPC)
# [13] = dose: 200.0 mg/kg/injection, schedule: Q01DX001 (ip), vehicle: Klucel (hydroxypropylcellulose) (HPC)
compound,measurement,setting,value
c1cc[c]([Sn]([c]2ccccc2)([c]2ccccc2)[n]2cccc2)cc1,T/C,"dose: 3.13 mg/kg/injection, schedule: Q01DX009 (ip), vehicle: saline with Tween-80",98 % of control
same,T/C,"dose: 6.25 mg/kg/injection, schedule: Q01DX009 (ip), vehicle: saline with Tween-80",102 % of control
same,T/C,"dose: 12.5 mg/kg/injection, schedule: Q01DX009 (ip), vehicle: saline with Tween-80",100 % of control
same,T/C,[1],94 % of control
C#CCn1cnc2c(=S)nc[nH]c21,T/C,"dose: 10.0 mg/kg/injection, schedule: Q01DX009 (ip), vehicle: saline",104 % of control
same,T/C,"dose: 15.0 mg/kg/injection, schedule: Q04DX003 (ip), vehicle: saline",103 % of control
same,T/C,[2],114 % of control
same,T/C,"dose: 30.0 mg/kg/injection, schedule: Q04DX003 (ip), vehicle: saline",111 % of control
same,T/C,"dose: 52.0 mg/kg/injection, schedule: Q04DX003 (ip), vehicle: Klucel (hydroxypropylcellulose) (HPC)",110 % of control
same,T/C,"dose: 60.0 mg/kg/injection, schedule: Q04DX003 (ip), vehicle: saline",111 % of control
same,T/C,"dose: 78.0 mg/kg/injection, schedule: Q04DX003 (ip), vehicle: Klucel (hydroxypropylcellulose) (HPC)",115 % of control
same,T/C,"dose: 90.0 mg/kg/injection, schedule: Q01DX009 (ip), vehicle: saline",119 % of control
same,T/C,[3],104 % of control
same,T/C,[4],113 % of control
same,T/C,"dose: 118.0 mg/kg/injection, schedule: Q04DX003 (ip), vehicle: Klucel (hydroxypropylcellulose) (HPC)",115 % of control
same,T/C,"dose: 175.0 mg/kg/injection, schedule: Q01DX009 (ip), vehicle: saline",93 % of control
same,T/C,"dose: 177.0 mg/kg/injection, schedule: Q01DX001 (ip), vehicle: Klucel (hydroxypropylcellulose) (HPC)",108 % of control
same,T/C,"dose: 177.0 mg/kg/injection, schedule: Q04DX003 (ip), vehicle: Klucel (hydroxypropylcellulose) (HPC)",155 % of control
same,T/C,"dose: 177.0 mg/kg/injection, schedule: Q04DX003 (ip), vehicle: saline",150 % of control
same,T/C,[5],121 % of control
same,T/C,[6],124 % of control
same,T/C,"dose: 266.0 mg/kg/injection, schedule: Q04DX003 (ip), vehicle: Klucel (hydroxypropylcellulose) (HPC)",162 % of control
same,T/C,"dose: 266.0 mg/kg/injection, schedule: Q04DX003 (ip), vehicle: saline",116 % of control
same,T/C,[7],157 % of control
same,T/C,"dose: 400.0 mg/kg/injection, schedule: Q04DX003 (ip), vehicle: saline",114 % of control
same,T/C,"dose: 600.0 mg/kg/injection, schedule: Q01DX001 (ip), vehicle: Klucel (hydroxypropylcellulose) (HPC)",152 % of control
same,T/C,"dose: 600.0 mg/kg/injection, schedule: Q01DX001 (ip), vehicle: other",156 % of control
same,T/C,"dose: 600.0 mg/kg/injection, schedule: Q04DX003 (ip), vehicle: saline",112 % of control
COc1ccc(C(O)c2cc3ccccc3[nH]2)cc1 (stereo not given),T/C,[8],95 % of control
same,T/C,[9],109 % of control
same,T/C,"dose: 400.0 mg/kg/injection, schedule: Q04DX002 (ip), vehicle: Klucel (hydroxypropylcellulose) (HPC)",106 % of control
Cc1ccc(NC(=O)OC/C=C/c2ccccc2)c([N+](=O)[O-])c1,T/C,[4],90 % of control
same,T/C,[6],93 % of control
same,T/C,[7],93 % of control
O=C1OC2CCCC1C2 (stereo not given),T/C,"dose: 50.0 mg/kg/injection, schedule: Q01DX001 (ip), vehicle: saline with Tween-80",104 % of control
same,T/C,"dose: 100.0 mg/kg/injection, schedule: Q01DX001 (ip), vehicle: saline with Tween-80",100 % of control
same,T/C,"dose: 200.0 mg/kg/injection, schedule: Q01DX001 (ip), vehicle: saline with Tween-80",100 % of control
S=c1[nH]c2ccccc2c2ccccc12,T/C,"dose: 50.0 mg/kg/injection, schedule: Q01DX009 (ip), vehicle: Klucel (hydroxypropylcellulose) (HPC)",96 % of control
same,T/C,[10],105 % of control
same,T/C,[4],97 % of control
same,T/C,[11],97 % of control
same,T/C,[6],90 % of control
same,T/C,[7],95 % of control
CCCCCCC(=O)NC1=C(N2CC2)C(=O)C(NC(=O)CCCCCC)=C(N2CC2)C1=O,T/C,[2],110 % of control
same,T/C,"dose: 45.0 mg/kg/injection, schedule: Q01DX009 (ip), vehicle: other",124 % of control
same,T/C,"dose: 50.0 mg/kg/injection, schedule: Q01DX009 (ip), vehicle: saline",122 % of control
same,T/C,"dose: 51.0 mg/kg/injection, schedule: Q01DX Z (ip), vehicle: carboxymethylcellulose (CMC)",124 % of control
same,T/C,"dose: 51.0 mg/kg/injection, schedule: Q01DX Z (ip), vehicle: methylcellulose (MC)",107 % of control
same,T/C,"dose: 65.0 mg/kg/injection, schedule: Q01DX009 (ip), vehicle: other",118 % of control
same,T/C,"dose: 66.0 mg/kg/injection, schedule: Q01DX009 (ip), vehicle: Klucel (hydroxypropylcellulose) (HPC)",113 % of control
same,T/C,"dose: 76.0 mg/kg/injection, schedule: Q01DX Z (ip), vehicle: methylcellulose (MC)",96 % of control
same,T/C,[3],96 % of control
same,T/C,[10],101 % of control
same,T/C,"dose: 100.0 mg/kg/injection, schedule: Q01DX009 (ip), vehicle: saline",123 % of control
same,T/C,[4],111 % of control
same,T/C,"dose: 100.0 mg/kg/injection, schedule: Q04DX003 (ip), vehicle: saline",103 % of control
same,T/C,"dose: 115.0 mg/kg/injection, schedule: Q01DX Z (ip), vehicle: carboxymethylcellulose (CMC)",120 % of control
same,T/C,"dose: 150.0 mg/kg/injection, schedule: Q01DX009 (ip), vehicle: Klucel (hydroxypropylcellulose) (HPC)",97 % of control and 99 % of control
same,T/C,"dose: 172.5 mg/kg/injection, schedule: Q01DX Z (ip), vehicle: carboxymethylcellulose (CMC)",114 % of control
same,T/C,[5],108 % of control
same,T/C,"dose: 200.0 mg/kg/injection, schedule: Q01DX009 (ip), vehicle: other",100 % of control
same,T/C,"dose: 200.0 mg/kg/injection, schedule: Q01DX009 (ip), vehicle: saline",94 % of control
same,T/C,"dose: 200.0 mg/kg/injection, schedule: Q04DX003 (ip), vehicle: saline",113 % of control
same,T/C,"dose: 264.0 mg/kg/injection, schedule: Q04DX003 (ip), vehicle: Klucel (hydroxypropylcellulose) (HPC)",114 % of control
same,T/C,"dose: 264.0 mg/kg/injection, schedule: Q04DX003 (ip), vehicle: other",111 % of control
same,T/C,"dose: 400.0 mg/kg/injection, schedule: Q01DX001 (ip), vehicle: other",110 % of control
same,T/C,[7],118 % of control
CC(=O)NC1C(O)CC(O)(C(=O)O)OC1C(O)C(O)CO (stereo not given),T/C,"dose: 100.0 mg/kg/injection, schedule: Q01DX001 (ip), vehicle: saline",98 % of control
same,T/C,"dose: 200.0 mg/kg/injection, schedule: Q01DX001 (ip), vehicle: saline",100 % of control
same,T/C,"dose: 400.0 mg/kg/injection, schedule: Q01DX001 (ip), vehicle: saline",94 % of control
CSc1ccc(/C=N/NC(N)=S)c(SC)n1,T/C,[4],98 % of control
same,T/C,[6],98 % of control
same,T/C,[7],96 % of control
c1ccc(-c2cc(-c3ccccc3)c(-c3ccccc3)o2)cc1,T/C,"dose: 50.0 mg/kg/injection, schedule: Q01DX001 (ip), vehicle: Klucel (hydroxypropylcellulose) (HPC)",92 % of control
same,T/C,[12],100 % of control
same,T/C,[13],92 % of control
CN(C)c1ccc(-c2cc[n+](C)cc2)cc1,T/C,"dose: 3.13 mg/kg/injection, schedule: Q04DX003 (ip), vehicle: saline",101 % of control
same,T/C,"dose: 6.25 mg/kg/injection, schedule: Q04DX003 (ip), vehicle: saline",101 % of control
same,T/C,"dose: 12.5 mg/kg/injection, schedule: Q04DX003 (ip), vehicle: saline",104 % of control
ON=C(c1ccc(Cl)cc1)c1ccc(Cl)cc1,T/C,[1],95 % of control
same,T/C,"dose: 200.0 mg/kg/injection, schedule: Q01DX009 (ip), vehicle: saline with Tween-80",93 % of control
same,T/C,"dose: 400.0 mg/kg/injection, schedule: Q01DX009 (ip), vehicle: saline with Tween-80",93 % of control
CC(C(=O)O)C(NC(=O)c1ccccc1)C(=O)O (stereo not given),T/C,[12],93 % of control
same,T/C,[13],100 % of control
same,T/C,"dose: 400.0 mg/kg/injection, schedule: Q01DX001 (ip), vehicle: Klucel (hydroxypropylcellulose) (HPC)",92 % of control
Cc1ccc(N2C(=O)CC(NC3CCCCC3)C2=O)cc1 (stereo not given),T/C,[10],97 % of control
same,T/C,[11],100 % of control
same,T/C,"dose: 400.0 mg/kg/injection, schedule: Q01DX009 (ip), vehicle: Klucel (hydroxypropylcellulose) (HPC)",97 % of control
O=C1c2cccc3cccc(c23)C(=O)N1CCCN1C(=O)c2cccc3cccc(c23)C1=O,T/C,[8],88 % of control
same,T/C,[9],98 % of control
